One may read the half-life as the time in which the quantity being followed falls by half.

Series [1] can be described thus: Kinetics of RSSH release (precursor hydrolysis) in the presence of MMTS, monitored by HPLC. The class given is physicochemical. The protocol:
After confirming RSSH generation from 1a, the kinetics of RSSH release from alkylsulfenyl thiocarbonates in the presence of MMTS was analyzed by high-performance liquid chromatography (HPLC). Due to the lack of a chromophore in MMTS adduct 7, the decay of the RSSH precursor and formation of the corresponding phenol byproduct was monitored. First-order rate constants were obtained by plotting the precursor decay and phenol byproduct formation as a function of time. […] The observation of similar rate constants for both 1a decay and phenol (4a) formation indicates a rapid reaction of relased RSSH with MMTS, and that these observed rate constants indicate the RSSH release rate. Importantly, 92% of the byproduct phenol 4a is observed. In addition, the effect of pH on the kinetics of RSSH release also was examined.
The RSSH release kinetics for precursors containing a variety of para-substituted phenols were then compared. It was hoped to decrease the rate of RSSH release through the introduction of electron-donating groups. Indeed, a small decrease in the RSSH release rate from 1b, equipped with a 4-Me substituent (137±4 min) (Table 1) was observed.
MMTS (100 μL, 50 mM) was added in pH 7.4 phosphate buffer saline (4.85 mL) containing the DTPA (100 μM) as metal chelator. This solution was preincubated for 10 min at 37° C. and then precursor 1a-f or 8 (50 μL, 10 mM) were independently added into the mixture (total volume=5 mL). The resulting solution was incubated at 37° C. At different time points, an aliquot of 300 μL was taken and quenched with 300 μL 0.1% formic acid solution. These samples were stored at 0° C. until HPLC analysis was performed. The sample (20 μL) was injected into a high-performance liquid chromatography (HPLC) equipped with Phenomenex C-18 reverse phase column (250 mm×4.6 mm, 5 μm). HPLC Method: mobile phase A (H2O) and mobile phase B (ACN), flow rate: 1 mL/min, run time: 21 min, the gradient elution method: 10% to 70% B from 0 to 10 min, 70% to 90% B from 10 to 21 min. The elution was monitored by a UV detector at 240 and 275 nm. First-order rate constants were obtained by plotting the precursor decay and phenol by-product formation as a function of time.

Series [2] concerns H9c2 cardiac myoblasts. Kind of series: H9c2 cell protection from H2O2-mediated oxidative stress, CCK-8. It counts as cell-based, rat. Particulars: then H2O2 200 μM.
Protocol: The cytoprotective effects of 1a was then measured against oxidative stress.
H9c2 embryonic rat heart myoblasts were obtained from the American Type Culture Collection. Cells were grown in Dulbecco's minimal essential medium (DMEM), supplemented with fetal bovine serum (FBS) 10%, penicillin 100 U/mL and streptomycin 100 μg/mL. They were propagated in T75-flasks, split before reaching 70-80% confluence (usually every day or every second day), and used within 11 passages. Cells were passaged to tissue culture treated 96-well microtiter plates at the specified density in 180 μL volumes and incubated for 24 h.
Cells were seeded at a density of 5×10^3 cells/well. After 24 h, precursor 1a or by-product 4a was added at 20 μL volumes using DMSO:H2O (<0.01% DMSO as the vehicle). Cells were incubated for 2 h before media was removed and the cells gently washed with PBS (pH 7.4). Then, 180 μL of fresh media and 20 μL H2O2 diluted into H2O were added and cells were incubated for an additional 2 h. At the completion of H2O2 exposure, each well is carefully washed 3 times with PBS (pH 7.4) before adding 100 μL of media, without-FBS, containing 10% v/v CCK-8 (Dojindo) and incubated for 3 h prior to obtaining absorbance values at 450 nm. The relative % viability was calculated as 100 times the ratio of the Abs450 (pre-treated, H2O2-exposed) over Abs450 (vehicle-treated, non H2O2-exposed).
The subject of series [3] is H9c2 cardiac myoblasts. Kind of series: H9c2 cell protection from H2O2-mediated oxidative stress, Sytox Green nucleic acid stain. It counts as cell-based, rat. Particulars: Sytox viability assay, H2O2 200 μM. The protocol: Jones and Singer, 2001. […] Tominaga et al., 1999.
Cells were incubated for 2 h before media was removed and the cells gently washed with PBS (pH 7.4). Then, 180 μL of fresh media and 20 μL H2O2 diluted in H2O were added before cells were incubated for an additional 1 h.

Series [4] deals with H9c2 cardiac myoblasts. Kind of series: Intracellular sulfane sulfur detection using the SSP4 probe. The class given is cell-based, rat. More on the design: SSP4 fluorescence signal (intracellular sulfane sulfur): dose or concentration left out as unconfirmed. The protocol:
Increased intracellular RSSH levels resulting from incubation with 1a utilizing SSP4, a fluorescent probe that has been used to detect of intracellular sulfane sulfur, Chen et al., 2013; Marutani et al., 2014, also was tested. Sulfane sulfur refers to a sulfur atom with six valence electrons and no charge. Biologically important sulfane sulfur compounds include RSSH, polysulfides (RSnSH or RSSnSR, n≥1), inorganic polysulfides (HSSnH, n≥1), and elemental sulfur (S8). Briefly, cells were incubated with SSP4 in the presence of cetrimonium bromide (CTAB) for 20 min and then washed with serum-free media before 1a is introduced. A significant increase of the SSP4 fluorescence signal was not observed following treatment with […] 1a due to the low amount of RSSH released at this concentration falling below the detection limit of the probe (FIG. 6). […] Since the SSP4 probe is known to react with a variety of sulfane sulfur species, the fluorescence signal observed upon treatment of 1a is likely due to RSSH and/or other sulfane sulfur species that might be present in the equilibrium with RSSH (e.g., Scheme 1-5). Thus, it is thought that the cytoprotective effects of 1a are attributed to increasing sulfane sulfur pools within the cultured cells.
Cells were seeded at a density of 1.5×10^4 cells/well. […] The fluorescence readings were obtained at 482Ex/515Em.

A further series deals with FA fibroblasts. Kind of series: Lipid peroxidation, C11-BODIPY (581/591) flow cytometry. The class given is cell-based, human. Conditions: 50 μM pre-treatment for 4 h, erastin 10 μM. An excerpt:
Blue represents DMSO-treated cells, red represents erastin treated cells, and green represents reduction of lipid peroxidation in live cells pretreated with AST;
The reduction of FXN levels in FA increases mitochondrial iron accumulation, ultimately leading to iron-dependent accumulation of lipid ROS and subsequent lipid peroxidation. […] As has been reported previously, we employed C11-BODIPY (581/591) to monitor a shift in fluorescence of oxidized C11-BODIPY. […] Dixon et al., 2012; Martinez et al., 2020.

Series [5] has as its system transferrin receptor 1 (TFR1). Kind of series: TFR1 protein expression, immunoblot. Particulars: 25 and 50 μM for 4 h, erastin 24 h. It counts as cell-based, human. The protocol: FIG. 14A, FIG. 14B, FIG. 14C, and FIG. 14D show: FIG. 14A and FIG. 14B pretreatment of AST (25 and 50 μM) for 4 h followed by 24 h treatment with erastin ([…]) immunoblots for indicated proteins of lysates derived from FA fibroblasts. FIG. 14C and FIG. 14D, relative abundance of TFR1 and FTH1 proteins normalized to β-actin loading control. Results are the means+SEM of n=3 for all concentrations. *P<0.05, **P<0.005, comparisons with the erastin group. Group comparisons are determined by a one-way analysis of variance (ANOVA) with Dunnet's correction post-hoc test using GraphPad Prism 8. Samples were run on the same gel for SDS-Page gel electrophoresis in nonconsecutive lanes;
To test this hypothesis, we studied the effect of RSSH on TFR1 and FTH1 expression levels. We anticipated that the impacts of RSSH would result in downregulation of TFR1 and upregulation of FTH1. […] Feng et al., 2020; Park and Chung, 2019.
On the technique in general: In western blotting, separated proteins are transferred to a membrane and probed.

The conditions of series [6]: pH 7.4 solution at 37° C.; cited from earlier work.
Where [7] appears, read: 10 equiv MMTS, PBS pH 7.4, 100 mM.

As for `COC(=O)C(NC(C)=O)C(C)(C)SSC(=O)Oc1ccccc1` (stereo not drawn) [Precursor 1a, Methyl 2-acetamido-3-methyl-3-((phenoxycarbonyl)disulfaneyl)butanoate], in series [1] (setting [7]), the “first-order rate constant k, disappearance of precursor” value came to 0.00539 min⁻¹. Also, the “first-order rate constant k, formation of phenol” value in series [1] (setting [7]) is 0.00533 min⁻¹. Moreover, the t1/2 of hydrolysis in series [1] (pH 6.0) stood at 26.65 ± 0.8 h; in series [1] (pH 8.0), 0.617 ± 0.05 h. The “cytoprotection against H2O2-induced toxicity” value is recorded as “dose-dependent decrease of H2O2-induced toxicity” with H9c2 cardiac myoblasts [2] (pre-treatment 4 h) and “shows protection” with H9c2 cardiac myoblasts [2] (pre-treatment with 5 μM for 8 h). Also, the “cytoprotection against H2O2-mediated toxicity” value in the series with H9c2 cardiac myoblasts [3] was “consistently shows protective effects”. The “SSP4 fluorescence signal (intracellular sulfane sulfur)” value with H9c2 cardiac myoblasts [4] is given as “not observed”. The “SSP4 fluorescence intensity (intracellular sulfane sulfur)” value in the series with H9c2 cardiac myoblasts [4] (100 and 200 mM, over a period of 3 h) is “Dose-dependent increases in fluorescence intensity”. Moreover, the “erastin-induced lipid peroxide levels” value with FA fibroblasts is given as “attenuated erastin-induced lipid peroxide levels”. Also, the TFR1 protein level entry in series [5] is given as “three-fold decrease”. Besides, in series [6], the half-life is 2.15 h.
